Test results: PMC4057667, “Study on Biopharmaceutics Classification and Oral Bioavailability of a Novel Multikinase Inhibitor NCE for Cancer Therapy” (International Journal of Molecular Sciences, 2014)

Experiments:
pKa determination = assay type: physicochemical; settings: read-out: pKa of conjugate acid
[1] = tested on: platelet-derived growth factor receptor (PDGFR); set-up: method as in PMID 21691074; settings: at a concentration of 10 μM; cited from earlier work
[2] = Stability in perfusion buffers; assay type: physicochemical; settings: for Detected concentration / Rate of change: perfusion buffer
Experimental: Storage conditions were investigated to guarantee the samples were stable before HPLC analysis. The stability of NCE was evaluated in the perfusion solution (pH 6.5). Four aliquots of the NCE solutions were stored at room temperature for 0, 2, 4 or 6 h, respectively. Another three were stored at 4 °C for 0, 24 or 48 h, respectively. All the samples were centrifuged at a rate of 1.3 × 10^4 rpm for 10 min and then measured by HPLC. The sample concentrations were compared.

[3] = tested on: vascular endothelial growth factor receptor 2 (VEGFR2); set-up: method as in PMID 21691074; settings: at a concentration of 10 μM; cited from earlier work
[4] = tested on: VEGF-stimulated human umbilical vein endothelial cells (HUVECs); set-up: method as in PMID 21691074; settings: in vitro; cited from earlier work

For `CNC(=O)c1cc(Oc2ccc(NC(=O)c3cccc(C(F)(F)F)c3)cc2)ccn1.Cc1ccc(S(=O)(=O)O)cc1.O` [NCE, 2-methylcarbamoyl-4-{4-[3-(trifluoromethyl)benzamido]phenoxy} pyridinium 4-methylbenzenesulfonate monohydrate], the pKa (pKa determination) is listed as 2.86, the inhibition rate [1] is listed as 55% and the Detected concentration ([2]; 4 °C, 24 h) is listed as 19.16 µg/mL. The Rate of change ([2]; 4 °C, 24 h) was 3.38%, the Detected concentration ([2]; 4 °C, 48 h) was 18.99 µg/mL and the Rate of change ([2]; 4 °C, 48 h) was 4.21%. It also gave a Detected concentration ([2]; 20 °C, 0 h) of 19.83 µg/mL, a Detected concentration ([2]; 20 °C, 2 h) of 19.66 µg/mL and a Rate of change ([2]; 20 °C, 2 h) of 0.86%. It also gave a Detected concentration ([2]; 20 °C, 4 h) of 19.49 µg/mL, a Rate of change ([2]; 20 °C, 4 h) of 1.70% and a Detected concentration ([2]; 20 °C, 6 h) of 19.32 µg/mL. The Rate of change ([2]; 20 °C, 6 h) was 2.55%, the “concentration variation rates, all samples in stability study” value ([2]; perfusion buffers, up to 6 h at room temperature or 48 h at 4 °C) was “less than 5%” and the inhibition rate [3] was 97%. For the same compound, the “inhibition of VEGF-stimulated HUVECs proliferation” value [4] was “more selective inhibition”.
